Data reported in patent publication US20250382297A1, “INHIBITORS OF FGFR2 AND FGFR3 AND USES THEREOF” (Insilico Medicine IP Limited, priority 2022, published 2025).
Where two headings read alike, the source gives them in different places.

Assays:
FGFR1 = FGFR1 (Homo sapiens (Human), UniProt P11362); test: FGFR biochemical assay (LanthaScreen TR-FRET kinase assay), FGFR1
Procedure: (§1) Convert Ratio values to percent inhibition values (Percent inhibition=(max−sample Ratio)/(max−min)*100) where “min” means the Ratio of no enzyme control and “max” means the Ratio of DMSO control. • Data are analyzed and curve fitting is performed by XLFit Excel add-in version 5.4.0.8. The IC50 calculation equation is: Y=Bottom+(Top-Bottom)/(1+ (IC50/X)^HillSlope.

FGFR2 = FGFR2 (Homo sapiens (Human), UniProt P21802); test: FGFR biochemical assay (LanthaScreen TR-FRET kinase assay), FGFR2
Procedure: as §1

FGFR3 = FGFR3 (Homo sapiens (Human), UniProt P22607); test: FGFR biochemical assay (LanthaScreen TR-FRET kinase assay), FGFR3
Sequence of FGFR3 (P22607 23-806): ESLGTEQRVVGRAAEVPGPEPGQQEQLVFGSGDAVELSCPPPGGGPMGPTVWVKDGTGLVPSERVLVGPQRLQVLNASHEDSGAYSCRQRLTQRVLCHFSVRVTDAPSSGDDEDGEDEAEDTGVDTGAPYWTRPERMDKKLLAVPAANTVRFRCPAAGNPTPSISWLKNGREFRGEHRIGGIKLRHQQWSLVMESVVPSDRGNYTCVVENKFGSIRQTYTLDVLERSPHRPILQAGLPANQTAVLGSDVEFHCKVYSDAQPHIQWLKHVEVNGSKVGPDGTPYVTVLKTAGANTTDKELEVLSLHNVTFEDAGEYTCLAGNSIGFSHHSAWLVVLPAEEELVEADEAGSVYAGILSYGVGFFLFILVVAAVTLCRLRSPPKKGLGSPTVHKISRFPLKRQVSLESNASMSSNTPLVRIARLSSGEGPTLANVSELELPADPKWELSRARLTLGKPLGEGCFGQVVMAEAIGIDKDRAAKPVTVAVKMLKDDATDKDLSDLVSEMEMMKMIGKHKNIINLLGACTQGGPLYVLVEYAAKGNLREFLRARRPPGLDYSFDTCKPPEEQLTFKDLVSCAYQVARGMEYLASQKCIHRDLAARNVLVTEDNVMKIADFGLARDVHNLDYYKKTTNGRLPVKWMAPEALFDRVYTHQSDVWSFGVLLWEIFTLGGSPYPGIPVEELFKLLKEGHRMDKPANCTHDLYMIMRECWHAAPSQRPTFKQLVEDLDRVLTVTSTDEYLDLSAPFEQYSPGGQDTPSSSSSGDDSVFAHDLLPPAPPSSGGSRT
Procedure: as §1

[1] = read-out: FGFR2 IC50, incubation with enzyme at room temperature for 10 minutes before substrate, ATP 22 μM, FGFR2 0.01 nM
[2] = read-out: FGFR1 IC50, incubation with enzyme at room temperature for 10 minutes before substrate, ATP 28 μM, FGFR1 0.01 nM
[3] = read-out: FGFR2 IC50, * incubation at room temperature for 60 minutes before addition of substrate solution, ATP 22 μM, FGFR2 0.01 nM
[4] = read-out: FGFR3 IC50, * incubation at room temperature for 60 minutes before addition of substrate solution, ATP 35 μM, FGFR3 0.1 nM

Sequence of FGFR1 (P11362 22-822): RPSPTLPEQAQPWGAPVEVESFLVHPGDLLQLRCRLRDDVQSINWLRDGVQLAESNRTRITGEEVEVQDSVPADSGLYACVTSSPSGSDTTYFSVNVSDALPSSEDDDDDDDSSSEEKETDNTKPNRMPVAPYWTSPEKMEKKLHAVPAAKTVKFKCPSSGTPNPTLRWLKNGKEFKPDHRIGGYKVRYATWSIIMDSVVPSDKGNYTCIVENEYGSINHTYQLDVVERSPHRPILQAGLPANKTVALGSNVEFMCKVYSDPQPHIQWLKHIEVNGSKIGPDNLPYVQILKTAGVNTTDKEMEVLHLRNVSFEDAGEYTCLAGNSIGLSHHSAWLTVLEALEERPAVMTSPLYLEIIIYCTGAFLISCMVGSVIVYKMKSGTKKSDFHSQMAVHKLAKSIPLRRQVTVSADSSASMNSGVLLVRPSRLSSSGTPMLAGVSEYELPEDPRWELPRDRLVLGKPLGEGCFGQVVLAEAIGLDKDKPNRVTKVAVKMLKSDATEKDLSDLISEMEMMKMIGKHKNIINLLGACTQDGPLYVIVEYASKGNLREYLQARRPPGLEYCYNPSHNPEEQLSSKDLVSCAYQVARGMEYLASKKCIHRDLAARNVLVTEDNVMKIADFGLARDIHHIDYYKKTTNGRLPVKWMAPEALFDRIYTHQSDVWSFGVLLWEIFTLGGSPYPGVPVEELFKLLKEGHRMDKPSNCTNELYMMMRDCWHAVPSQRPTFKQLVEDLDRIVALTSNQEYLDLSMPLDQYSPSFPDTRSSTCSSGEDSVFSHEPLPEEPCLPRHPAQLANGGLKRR
Sequence of FGFR2 (P21802 22-821): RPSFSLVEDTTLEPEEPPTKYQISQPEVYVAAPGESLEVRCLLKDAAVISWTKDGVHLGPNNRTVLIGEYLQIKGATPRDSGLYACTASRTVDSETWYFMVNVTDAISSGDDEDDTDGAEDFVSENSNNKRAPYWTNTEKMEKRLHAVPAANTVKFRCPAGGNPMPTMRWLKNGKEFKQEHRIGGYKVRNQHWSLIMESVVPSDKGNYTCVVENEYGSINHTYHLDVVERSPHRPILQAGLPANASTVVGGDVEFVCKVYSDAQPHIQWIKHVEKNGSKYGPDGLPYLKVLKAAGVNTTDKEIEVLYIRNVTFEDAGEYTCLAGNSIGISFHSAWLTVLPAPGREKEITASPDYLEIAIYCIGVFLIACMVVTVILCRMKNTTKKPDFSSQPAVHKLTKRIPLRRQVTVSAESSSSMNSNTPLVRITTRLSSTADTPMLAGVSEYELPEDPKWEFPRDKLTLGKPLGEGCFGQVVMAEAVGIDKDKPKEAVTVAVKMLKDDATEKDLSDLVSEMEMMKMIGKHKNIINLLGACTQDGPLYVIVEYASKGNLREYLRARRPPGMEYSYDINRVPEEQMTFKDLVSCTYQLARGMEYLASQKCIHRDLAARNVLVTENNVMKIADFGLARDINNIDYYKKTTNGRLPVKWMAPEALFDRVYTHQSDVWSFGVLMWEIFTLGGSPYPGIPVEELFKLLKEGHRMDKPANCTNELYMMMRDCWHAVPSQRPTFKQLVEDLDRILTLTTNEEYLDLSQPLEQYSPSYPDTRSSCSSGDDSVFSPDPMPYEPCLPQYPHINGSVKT

SMILES	IC50 (FGFR1) [µM]	IC50 (FGFR2; [1]) [µM]	IC50 (FGFR3) [µM]	IC50 (FGFR1; [2]) [µM]	IC50 (FGFR3; read-out: FGFR3 IC50, incubation with enzyme at room temperature for 10 minutes before substrate, ATP 35 μM, FGFR3 0.1 nM) [µM]	IC50 (FGFR2) [µM]	IC50 (FGFR2; [3]) [µM]	IC50 (FGFR3; [4]) [µM]
Cc1cn2c(-c3ccc(NC(=O)/C=C/CN(C)C)nc3)c(-c3ccc(Oc4cccc(C)n4)cc3)c(C(N)=O)c2cn1 [Example 10, (E)-6-(6-(4-(dimethylamino)but-2-enamido)pyridin-3-yl)-3-methyl-7-(4-((6-methylpyridin-2-yl)oxy)phenyl)pyrrolo[1,2-a]pyrazine-8-carboxamide]	0.01 to 0.1	< 0.01	0.01 to 0.1					
C=CC(=O)Nc1ccc(-c2c(-c3ccc(Oc4nc(C)cs4)cc3)c(C(N)=O)c3cnccn23)cc1 [Example 19, 6-(4-acrylamidophenyl)-7-(4-((4-methylthiazol-2-yl)oxy)phenyl)pyrrolo[1,2-a]pyrazine-8-carboxamide]	0.01 to 0.1	< 0.01	0.01 to 0.1					
C=CC(=O)N1CCc2cc(-c3c(-c4ccc(Oc5cccc(C)n5)cc4)c(C(N)=O)c4cnccn34)ccc21 [Example 14, 6-(1-acryloylindolin-5-yl)-7-(4-((6-methylpyridin-2-yl)oxy)phenyl)pyrrolo[1,2-a]pyrazine-8-carboxamide]		< 0.01		< 0.01	< 0.01			
C=CC(=O)Nc1ccc(-c2c(-c3ccc(Oc4cccc(C)n4)cc3)c(C(N)=O)c3cnc(C#N)cn23)cc1 [Example 77, 6-(4-acrylamidophenyl)-3-cyano-7-(4-((6-methylpyridin-2-yl)oxy)phenyl)pyrrolo[1,2-a]pyrazine-8-carboxamide]			0.1 to 1	> 1		0.01 to 0.1		
C=C(F)C(=O)N1CCc2cc(-c3c(-c4ccc(Oc5nccc(C)n5)c(F)c4)c(C(N)=O)c4ccc(C)nn34)c(C)cc21 [Example 96, 6-(3-fluoro-4-((4-methylpyrimidin-2-yl)oxy)phenyl)-7-(1-(2-fluoroacryloyl)-6-methylindolin-5-yl)-2-methylpyrrolo[1,2-b]pyridazine-5-carboxamide]	0.01 to 0.1						< 0.01	< 0.01
C=CC(=O)Nc1cc(C)c(-c2c(-c3ccc(Oc4cccc(C)n4)cc3)c(C(N)=O)c3cnccn23)cn1 [Example 4, 6-(6-acrylamido-4-methylpyridin-3-yl)-7-(4-((6-methylpyridin-2-yl)oxy)phenyl)pyrrolo[1,2-a]pyrazine-8-carboxamide]	0.01 to 0.1		0.01 to 0.1			0.01 to 0.1		
Cc1ccnc(Oc2ccc(-c3c(C(N)=O)c4cnc(CO)cn4c3-c3ccc(NC(=O)/C=C/CN(C)C)cc3)cc2)n1 [Example 79, (E)-6-(4-(4-(dimethylamino)but-2-enamido)phenyl)-3-(hydroxymethyl)-7-(4-((4-methylpyrimidin-2-yl)oxy)phenyl)pyrrolo[1,2-a]pyrazine-8-carboxamide]	0.01 to 0.1	< 0.01	0.01 to 0.1					
C=C(F)C(=O)N1CCc2cc(-c3c(-c4ccc(Oc5nccc(C)n5)c(F)c4)c(C(N)=O)c4cnc(C)cn34)c(C)cc21 [Example 97, 7-(3-fluoro-4-((4-methylpyrimidin-2-yl)oxy)phenyl)-6-(1-(2-fluoroacryloyl)-6-methylindolin-5-yl)-3-methylpyrrolo[1,2-a]pyrazine-8-carboxamide]	0.01 to 0.1						< 0.01	< 0.01
C=CC(=O)Nc1ccc(-c2c(-c3ccc(Oc4nccc(C)n4)c(F)c3)c(C(N)=O)c3cnc(C)cn23)cc1C [Example 37, 6-(4-acrylamido-3-methylphenyl)-7-(3-fluoro-4-((4-methylpyrimidin-2-yl)oxy)phenyl)-3-methylpyrrolo[1,2-a]pyrazine-8-carboxamide]			0.1 to 1	> 1		0.01 to 0.1		
C=CC(=O)Nc1ccc(-c2c(-c3ccc(Oc4nccc(C)n4)c(F)c3)c(C(N)=O)c3cnccn23)cc1 [Example 33, 6-(4-acrylamidophenyl)-7-(3-fluoro-4-((4-methylpyrimidin-2-yl)oxy)phenyl)pyrrolo[1,2-a]pyrazine-8-carboxamide]	0.01 to 0.1	< 0.01	0.01 to 0.1					
